Values of other authors, collected in patent US20230243817A1, “USES, METHODS AND PRODUCTS RELATING TO OLIGOMERIC LIPOPOLYSACCHARIDE BINDING PROTEINS” (priority 2020, published 2023).

Details: for Kd: read-out: KD for LPS

Molecule	Kd [µM]	Reported binding affinity (depending on the bacterial strain)
MD-2: human LPS immune receptor	2.33	–
TLR4: human LPS immune receptor	141	–
polymyxin B [reference compound]	48	micromolar range
LPS binding protein: human LPS immune receptor (protein, UniProt P18428 26-481, looked up) Lipopolysaccharide-binding …: ANPGLVARITDKGLQYAAQEGLLALQSELLRITLPDFTGDLRIPHVGRGRYEFHSLNIHSCELLHSALRPVPGQGLSLSISDSSIRVQGRWKVRKSFFKLQGSFDVSVKGISISVNLLLGSESSGRPTVTASSCSSDIADVEVDMSGDLGWLLNLFHNQIESKFQKVLESRICEMIQKSVSSDLQPYLQTLPVTTEIDSFADIDYSLVEAPRATAQMLEVMFKGEIFHRNHRSPVTLLAAVMSLPEEHNKMVYFAISDYVFNTASLVYHEEGYLNFSITDDMIPPDSNIRLTTKSFRPFVPRLARLYPNMNLELQGSVPSAPLLNFSPGNLSVDPYMEIDAFVLLPSSSKEPVFRLSVATNVSATLTFNTSKITGFLKPGKVKVELKESKVGLFNAELLEALLNYYILNTFYPKFNDKLAEGFPLPLLKRVQLYDLGLQIHKDFLFLGANVQYMRV	0.0035	–
